In PMC10060639, “Prediction and bioactivity of small-molecule antimicrobial peptides from Protaetia brevitarsis Lewis larvae” (Frontiers in Microbiology, 2023):
Several values for one entry are separate records, joined by “and”; a condition that tells them apart may be missing. Equal entries are not always repeated.

Key:
[1] = test system: S. aureus CMCC(B) 26003; assay: agar punch method, inhibition circle; assay type: cell-based, Staphylococcus aureus; conditions: 6 mm hole, 55 μL of 1 mg/mL, NA, 37°C, 16–18 h, mean ± SD, three replicates, + control given per plate group
Procedure: (§1) Staphylococcus aureus CMCC(B) 26003, B. thuringiensis, E. coli, and P. aeruginosa CMCC(B)10104 were cultured in NA medium and C. albicans CMCC(F) 98001 was cultured in SDA medium. They were incubated in a constant-temperature (bacteria: 37°C; fungi: 28°C) incubator for 16–20 h. Thereafter, single colonies were picked and incubated in 50 mL MHB at 160 rpm/min at the optimal growth temperature (bacteria: 37°C; fungi: 28°C). Microbial suspensions of 1 × 10^6 CFU/mL were then prepared ([Chen et al., 2016]).
(§2) 100 μL of 1 × 10^6 CFU/mL microbial suspension (E. coli, P. aeruginosa CMCC(B)10104, B. thuringiensis, S. aureus CMCC(B) 26003, or C. albicans CMCC(F) 98001) was evenly applied to dishes containing 20 mL NA (bacteria) or SDA (fungi). After the microbial solution solidified, six holes per dish were punched with a sterile pipette tip of 6 mm in diameter, with each hole spaced >20 mm apart and > 10 mm apart from the edge of the dish. […] Next, 55 μL of 1 mg/mL control/treatment was added to each hole and incubated in a constant-temperature (bacteria: 37°C; fungi: 28°C) incubator for 16–18 h ([Chen et al., 2016]; [Gong et al., 2022]), with three replicates for each treatment group. The diameter of the inhibition circle was measured using ImageJ software (National Institutes of Health, United States) in order to preliminarily determine whether the candidate peptides had inhibitory activity.

[2] = test system: B. thuringiensis; assay: agar punch method, inhibition circle; assay type: cell-based, Bacillus thuringiensis; conditions: 6 mm hole, 55 μL of 1 mg/mL, NA, 37°C (Fig. S3C: 30°C), 16–18 h, mean ± SD, three replicates, + control given per plate group
Procedure: as §1, §2

[3] = test system: S. aureus CMCC(B) 26003; assay: dynamic antimicrobial analysis (OD600 growth over 10 h); assay type: cell-based, Staphylococcus aureus; conditions: 1/4× MIC, OD600 every hour for 10 h, 37°C, n = 3
Procedure: (§3) Therefore, the follow-up experiments involved these two bacteria, along with the three AMPs with the best antimicrobial effects (FD10, FD12, and FD15). The dynamic antimicrobial effects were analyzed by measuring the effects of the AMPs on bacterial growth over 10 h. First, 100 μL microbial solution (1.0 × 10^6 CFU/mL) was added to the wells of a 96-well culture plate, and then 100 μL AMP (at 1× and 1/4× MIC) was added and the mixtures were cultured at 37°C ([Mishra et al., 2013]; [Memariani et al., 2016]). 100 μL MHB with 100 μL microbial solution was used as the control group. The optical density at 600 nm (OD600) was measured every hour for 10 h using a microplate reader ([Hou et al., 2007]). The experiment was conducted in triplicate.

[4] = test system: C. albicans CMCC(F) 98001; assay: agar punch method, inhibition circle; assay type: cell-based, Candida albicans; conditions: 6 mm hole, 55 μL of 1 mg/mL, SDA, 28°C, 16–18 h, mean ± SD, three replicates, + control given per plate group
Procedure: as §1, §2

[5] = test system: P. aeruginosa CMCC(B)10104; assay: agar punch method, inhibition circle; assay type: cell-based, Pseudomonas aeruginosa; conditions: 6 mm hole, 55 μL of 1 mg/mL, NA, 37°C, 16–18 h, mean ± SD, three replicates, + control given per plate group
Procedure: as §1, §2

[6] = test system: E. coli; assay: dynamic antimicrobial analysis (OD600 growth over 10 h); assay type: cell-based, Escherichia coli; conditions: 1/4× MIC, OD600 every hour for 10 h, 37°C, n = 3
Procedure: as §3

[7] = test system: E. coli; assay: agar punch method, inhibition circle; assay type: cell-based, Escherichia coli; conditions: 6 mm hole, 55 μL of 1 mg/mL, NA, 37°C, 16–18 h, mean ± SD, three replicates, + control given per plate group
Procedure: as §1, §2

[8] = test system: mouse RAW 264.7 macrophages; assay: cytotoxicity, MTT assay; assay type: cell-based; conditions: at 256 μg/mL, 24 h incubation, absorbance 570 nm, n = 3
Procedure: Followed the removing of the MTT, dimethyl sulfoxide (DMSO) (150 μL/well) was added and the absorbance was measured at 570 nm. Untreated cells were used as a control. […] The cytotoxicity detection was repeated in triplicate.

[9] = test system: P. aeruginosa CMCC(B)10104; assay type: cell-based, Pseudomonas aeruginosa; conditions: micro-broth dilution, two-fold dilutions, 37°C, 16–18 h, no visible growth, triplicate
Procedure: as §1
(§4) The MIC values of five candidate peptides (FD4, FD10, FD12, FD14, and FD15), which were selected based on physicochemical properties and antimicrobial effects (determined by the agar punch method), were evaluated using a micro-broth dilution method ([Zhou and Zhou, 2018]). Serial two-fold dilutions of the candidate peptides were prepared in 96-well plates containing the same microbial inoculum (E. coli, P. aeruginosa CMCC(B)10104, B. thuringiensis, S. aureus CMCC(B) 26003, or C. albicans CMCC(F) 98001). The plates were incubated (bacteria: 37°C; fungi: 28°C) for 16–18 h. Ampicillin was used as the positive control. The MIC was defined as the lowest peptide concentration where no visible growth occurred ([Diao et al., 2014]). The experiment was conducted in triplicate.

[10] = test system: E. coli; assay: time-kill assay; assay type: cell-based, Escherichia coli; conditions: 2× MIC, MHB with 10^6 CFU/mL, 37°C, 100 rpm, colony counting, n = 3
Procedure: (§5) The kill-time curve assay method was used to investigate the bactericidal effects of the […] according to the technique described by [Joray et al. (2011)]. A time–kill assay was used to examine the rate at which three AMPs (FD10, FD12, and FD15) killed two microbes (S. aureus CMCC(B) 26003 and E. coli) in vitro over time, based on the number of viable bacteria left at various time points after AMP exposure. Briefly, AMP at 2× MIC was added to MHB containing 10^6 CFU/mL S. aureus CMCC(B) 26003 or E. coli and the mixture was then incubated at 37°C and 100 rpm. At various time points, a sample was taken, serially diluted, and plated on MHA for colony counting ([Flamm et al., 2019]).

[11] = test system: S. aureus CMCC(B) 26003; assay: time-kill assay; assay type: cell-based, Staphylococcus aureus; conditions: 2× MIC, MHB with 10^6 CFU/mL, 37°C, 100 rpm, colony counting, n = 3
Procedure: as §5

[12] = test system: E. coli; assay type: cell-based, Escherichia coli; conditions: E. coli, 16–18 h, triplicate
Procedure: (§6) E. coli and S. aureus CMCC(B) 26003 (1 × 10^6 CFU/mL) were incubated in MHB with various final physiological concentrations of serum salts (150 mM NaCl, 4.5 mM KCl, 1 mM MgCl2, and […]). 50 μL of these E. coli or S. aureus CMCC(B) 26003 suspensions and 50 μL of AMP (serially diluted two-fold to a final concentration of 256 μg/mL) were added to a 96-well plate and incubated at 37°C for 16–18 h ([Chou et al., 2016]). The MIC values were then determined. The experiment was conducted in triplicate.

[13] = test system: S. aureus CMCC(B) 26003; assay type: cell-based, Staphylococcus aureus; conditions: micro-broth dilution, two-fold dilutions, 37°C, 16–18 h, no visible growth, triplicate
Procedure: as §1, §4

[14] = test system: E. coli; assay type: cell-based, Escherichia coli; conditions: micro-broth dilution, two-fold dilutions, 37°C, 16–18 h, no visible growth, triplicate
Procedure: as §1, §4

[15] = test system: C. albicans CMCC(F) 98001; assay type: cell-based, Candida albicans; conditions: micro-broth dilution, two-fold dilutions, 28°C, 16–18 h, no visible growth, triplicate
Procedure: as §1, §4

[16] = test system: B. thuringiensis; assay type: cell-based, Bacillus thuringiensis; conditions: micro-broth dilution, two-fold dilutions, 37°C, 16–18 h, no visible growth, triplicate
Procedure: as §1, §4

[17] = test system: S. aureus CMCC(B) 26003; assay type: cell-based, Staphylococcus aureus; conditions: 16–18 h, triplicate
Procedure: as §6

## CC1(C)S[C@@H]2[C@H](NC(=O)[C@H](N)c3ccccc3)C(=O)N2[C@H]1C(=O)O [ampicillin, reference compound]
[1]
  Inhibition circle diameter (mm) S. aureus CMCC(B) 26003: 19.98 mm
[1]; listed as +
  Inhibition circle diameter (mm) S. aureus CMCC(B) 26003: 14.35 ± 0.49 mm and 15.58 ± 0.58 mm and 16.02 ± 0.34 mm and 19.98 ± 0.42 mm
[2]
  Inhibition circle diameter (mm) B. thuringiensis: 17.95 ± 0.36 mm and 13.99 ± 0.61 mm and 17.47 ± 0.19 mm and 15.97 ± 0.49 mm
[3]
  time after which S. aureus CMCC(B) 26003 growth began: around 2 h
[4]
  Inhibition circle diameter (mm) C. albicans CMCC(F) 98001: 16.16 ± 0.51 mm and 17.74 ± 0.47 mm and 17.80 ± 0.25 mm and 19.69 ± 0.53 mm
[5]; listed as +
  Inhibition circle diameter (mm) P. aeruginosa CMCC(B)10104: 15.10 ± 0.43 mm and 16.52 ± 0.55 mm and 16.99 ± 0.39 mm and 14.48 ± 0.29 mm
[6]
  time after which E. coli growth began: > 1 h
[7]
  Inhibition circle diameter (mm) E. coli: 29.37 mm
[7]; listed as +
  Inhibition circle diameter (mm) E. coli: 27.03 ± 0.47 mm and 27.84 ± 0.30 mm and 30.50 ± 0.21 mm and 29.37 ± 0.31 mm
[8]
  survival rate of mouse RAW 264.7 macrophages: 84.90%

## STLHLVLRLR-NH2 [FD15, FD16 with -NH2 added to the terminal]
[1]
  Inhibition circle diameter (mm) S. aureus CMCC(B) 26003: 10.02 ± 0.22 mm
[9]
  MIC (μg/mL) P. aeruginosa CMCC(B)10104: - (−Indicated that the MIC was greater than 256 μg/mL.)
[2]
  Inhibition circle diameter (mm) B. thuringiensis: 9.15 ± 0.44 mm
[10]
  time within which almost all E. coli cells were killed: ≤ 1 h
[11]
  time within which almost all S. aureus cells were killed: ≤ 1 h
[12]; MHB with 1 mM MgCl2, 37°C
  MIC, MgCl2: 64 µg/mL
[12]; MHB with 4 mM FeCl3, 37°C
  MIC, FeCl3: 16 µg/mL
[12]; MHB with 4.5 mM KCl, 37°C
  MIC, KCl: 64 µg/mL
[12]; MHB with 150 mM NaCl, 37°C
  MIC, NaCl: 64 µg/mL
[12]; MHB, absence of physiological salts, 37°C
  MIC, Control: 32 µg/mL
[4]
  Inhibition circle diameter (mm) C. albicans CMCC(F) 98001: 0 mm
[5]
  Inhibition circle diameter (mm) P. aeruginosa CMCC(B)10104: 0 mm
[13]
  MIC (μg/mL) S. aureus CMCC(B) 26003: 16 µg/mL
[14]
  MIC (μg/mL) E. coli: 32 µg/mL
[7]
  Inhibition circle diameter (mm) E. coli: 11.18 ± 0.38 mm
[15]
  MIC (μg/mL) C. albicans CMCC(F) 98001: - (−Indicated that the MIC was greater than 256 μg/mL.)
[16]
  MIC (μg/mL) B. thuringiensis: 128 µg/mL
[17]; S. aureus CMCC(B) 26003, MHB with 1 mM MgCl2, 37°C
  MIC, MgCl2: 64 µg/mL
[17]; S. aureus CMCC(B) 26003, MHB with 4 mM FeCl3, 37°C
  MIC, FeCl3: 32 µg/mL
[17]; S. aureus CMCC(B) 26003, MHB with 4.5 mM KCl, 37°C
  MIC, KCl: 32 µg/mL
[17]; S. aureus CMCC(B) 26003, MHB with 150 mM NaCl, 37°C
  MIC, NaCl: 64 µg/mL
[17]; S. aureus CMCC(B) 26003, MHB, absence of physiological salts, 37°C
  MIC, Control: 16 µg/mL
